This note sets out measurements from patent US11045419B2, “Pharmaceutical preparation of carbohydrates for therapeutic use” (Glycomine, Inc., priority 2013, dated 2021).

The subject of this test is CDG-Ia fibroblasts. The test is described as follows: LLO oligosaccharide distribution in fibroblasts by normal phase chromatography. It is filed as cell-based, human. To be noted: low glucose DMEM, 300 μM treatment, peak area normalized to protein content. The protocol:
Cellular internalization into the cytosol and subsequent integration of the M1P-liposomes (as prepared in Example 1), was assessed in vitro using primary human dermal fibroblasts derived from patients affected with CDG-Ia disorder (CDG-Ia fibroblasts) and wild-type human dermal fibroblasts. For evaluation of the ability of the M1P-liposomes to correct protein glycosylation defects, M1P-liposomes were delivered to CDG Type I primary fibroblasts derived from patients affected with CDG-Ia disorder. The ability to drive glycosylation forward was evaluated by comparing glycoprotein N-glycan structure before and after treatment. Such comparison required N-glycan analysis using normal phase chromatography. By utilizing endocytotic pathways, M1P-liposomes can enter the cell interior and release their cargo into the cytosol. Due to the ability to deliver a non-modified mannose-1-phosphate into the cytosol, analysis was performed on the assembly of LLO oligosaccharides in wild-type fibroblasts and fibroblasts derived from a CDG-Ia patient ([…] structures were isolated from the wild-type fibroblasts (having 100% PMM activity) as well as from the CDG-Ia fibroblasts (having 10% PMM activity) and the amounts of the LLO structures were compared using chromatographic methods. CDG-Ia dermal fibroblasts make a series of truncated lipid-linked oligosaccharide (LLO) species ranging in size from M2Gn2 to M5Gn2 with M2Gn2 and M3Gn2 being predominant. The M1P liposomes from Example 1 were tested in order to evaluate their capacity to normalize the distribution of various LLO oligosaccharides. CDG-Ia fibroblasts cultured in low glucose DMEM media were incubated with 300 μM of bare M1P (M1P) and 300 μM of the M1P-liposomes (M1PL). After treatment, cells were harvested and LLO oligosaccharides were recovered, hydrolyzed, modified with fluorophore, and analyzed by normal phase chromatography as described by Gao et al. (Methods in Enzymology, 2006, 415, 3-20) and Bones et al. (Anal. Chem, 2011, 83 (13), 5344-52). The peak area of each LLO was normalized to protein content prior to calculation of percentage abundance.

In the case of `O=P(O)(O)OC1O[C@H](CO)[C@@H](O)[C@H](O)[C@@H]1O` (stereo partly shown) [M1P, mannose-1-phosphate], the “M2Gn2 LLO oligosaccharide distribution (percentage abundance)” value came out at 40%, the “M3Gn2 LLO oligosaccharide distribution (percentage abundance)” value is given as 24%, the “M4Gn2 LLO oligosaccharide distribution (percentage abundance)” value turned out to be 27% and the “M5Gn2 LLO oligosaccharide distribution (percentage abundance)” value is given as 8.9%.
